US20210130362A1, “MEDICAL USE OF COMPOUND III” (Boehringer Ingelheim International GmbH, priority 2017, published 2021)

Columns and labels:
[1] = test system: patients with schizophrenia on stable antipsychotic treatment; experiment: Multinational, randomised, double-blind, placebo-controlled, parallel group clinical trial of compound III, 12 weeks of treatment; assay type: in vivo, human
Experimental: Regarding reducing the exacerbations of symptoms characterizing relapse, including suicidality, the clinical trial disclosed below was designed to show the efficacy of compound III in improvement of cognitive impairment in patients with schizophrenia as compared to placebo. All patients were on stable antipsychotic treatment (see Table 8 in FIGS. 6A-6C). The study was a multinational, multicentre, randomised, double-blind, placebo-controlled, parallel group trial.
Compound III (10, 25 and 50 mg) and matching placebo were supplied as film-coated tablets (formulation 1).
In total, 516 patients with schizophrenia on stable antipsychotic treatment (Table 8 in FIGS. 6A-6C) as described below were randomized into this trial. […]
The primary safety endpoints are as follows: • Occurrence of adverse events (AEs)/serious adverse events (including the abnormalities of physical examination, vital signs, electrocardiogram test and laboratory tests) • Occurrence of protocol-specified adverse events of special interest • Dramatic worsening of disease state as assessed by PANSS • Suicidality as assessed by Columbia Suicidal Severity Rating Scale (C-SSRS) […]

[2] = Intrinsic dissolution rate of compound III; assay type: physicochemical; details: physiologically relevant pH range above pH 4
[3] = patients with schizophrenia receiving antipsychotic therapy

O=c1[nH]c(Cc2ccccn2)nc2c1cnn2C1CCOCC1 [compound III]
psychiatric serious adverse events (SAEs): hospitalization for disease worsening (schizophrenia, psychotic disorder) and suicidality leading to hospitalization ([1]; any arm dosed with compound III (10, 25, 50, 100 mg qd), 12 weeks, treated set, 8/8 (100%) of these SAEs in placebo arm): none
change in intensity and occurrence of suicidal ideation compared to placebo [1, 3]: decrease
change in psychiatric serious adverse events (hospitalization for serious worsening of schizophrenia symptoms) compared to placebo [1, 3]: statistically significant, clinically meaningful decrease
intrinsic dissolution rate [2]: low
